1 molecule from patent US5739130A, “Heterotricyclic derivatives, process for their preparation and pharmaceutical compositions containing them” (Fujisawa Pharmaceutical Co., Ltd., priority 1992, dated 1998) can be followed below.

Assay [1] has as its system proteinuria (serum albumin in the urine). The assay can be described thus: Inhibitory activity on the leakage of a proteinuria (GVH disease mice, serum albumin in urine). Type of assay: in vivo, (57BL/6×DBA/2)F1. Conditions: 32 mg/kg orally once a day for 8 weeks, measured 8 weeks after last cell injection, P<0.01 vs control. As to the method: (§1) Inhibitory activity on the production of an anti-DNA-antibody and on the leakage of a proteinuria
(§2) Six weeks old female (57BL/6×DBA/2)F1 and DBA/2 mice were used. Graft-versus-host (GVH) disease was induced in (57BL/6×DBA/2)F1mice with two injections of DBA/2 spleen cells given 5 days apart. Each injection contained 5×10^7 cells. From 3 days after the second cell injection, drug was administered orally once a day for 8 weeks.
(§3) As an indication of autoimmune disease, 4 weeks after the last cell injection anti-single strand DNA antibodies were measured by enzyme-linkedimmunosorbent assay (ELISA) using the procedure reported by T. Fujitsu et al. (International J. Immunopharmacol, 8 897 (1986)). To assess the renal disease, 8 weeks after the last cell injection proteinuria were measured. The concentration of serum albumin in the urine was determined by the single radial immunodiffusion method using rabbit anti-mouse serum albumin antiserum. Ten mice were used per group. The activity of the compound was expressed as a % inhibition of anti-DNA antibody and proteinuria.

The next assay deals with B16 melanoma cells. In words: Inhibitory activity on B16 melanoma metastases. The format is in vivo, Mouse. Conditions: C57BL/6 mice, day 16, P<0.01 vs control. As to the method: Inhibitory activity on B16 melanoma metastases
According to the experimental schedule as exemplified below, the experiment was carried out.
Mouse B16 melanoma cells (5×10^5 cells) were inoculated intravenously to 8 weeks old female (C57BL/6) mice on day 0.
The animals were sacrificed at day 16 and tumor colonies established in lung were counted in a dissection microscope.
The test compound was administered orally once a day.
Effects of test compound on tumors were assessed by the numbers of colonies compared to control. [drawing 8] 2. Test compound

Assay [2] relates to anti-single strand DNA antibodies. The assay can be described thus: Inhibitory activity on the production of an anti-DNA-antibody (GVH disease mice, ELISA). Type of assay: in vivo, (57BL/6×DBA/2)F1. Conditions: 32 mg/kg orally once a day for 8 weeks, measured 4 weeks after last cell injection, P<0.05 vs control. As to the method:
as §1, §2, §3
In general terms: An ELISA detects its analyte on a solid surface through an enzyme-linked reagent.

Take `COc1cc2c3c(c1)c(O)c(C(=O)N1CCc4ccccc41)c(=O)n3CCO2` [2,3-Dihydro-7-hydroxy-9-methoxy-6-(1-indolinylcarbonyl)-5-oxo-5H-pyrido[1,2,3-de]-1,4-benzoxazine]: the “Inhibition (%) proteinuria” value in assay [1] was determined as 99%. The “inhibition (%) of tumor colonies in lung” value in the assay with B16 melanoma cells (32 mg/kg orally once a day) came out at 36%; in the assay on B16 melanoma cells (100 mg/kg orally once a day), 59%. In addition, the “Inhibition (%) anti-DNA antibody” value in assay [2] worked out at 86%.
